What was measured:
[1] = molecular target: T1, NLRP3 inflammasome (Homo sapiens, UniProt Q96P20); test: NLRP3 inflammasome activation in LPS-primed, nigericin-activated THP1 macrophages, IL-1β AlphaLISA; assay type: cell-based; conditions: PMA-differentiated, 1 hr compound, Nigericin 6.7 uM 3 hrs, IL-1β in supernatant
T1 construct: host or cells: THP1 human acute monocytic leukemia cells, PMA-differentiated, LPS-primed
Procedure: (§1) NLRP3 Inflammasome Activation and Cell Viability Assessment in THP1 Macrophages
(§2) THP1—Human acute monocytic leukemia cells were cultured (ATCC, cat #TIB-202) in Gibco RPMI-1640 medium (ThermoFisher cat #72400054) supplemented with 10% Heat Inactivated FBS at density between 3-8×10^5 viable cells/mi. The cells were then subcultured when the cell concentration reached 8×10^5 cells/mL (every 2-3 days).
(§3) The parameter wells were filled with 50 ul PBS and incubated at 37° C., 5% CO2 for 48 hrs.
(§4) After 48 hrs incubation, the PMA containing media was removed, and changed for 40 ul/well of fresh DMEM, 10% FBS, 1× GlutaMax and incubated at 37° C., 5% CO2 for 24 hrs.
(§5) The following day the cells were primed with LPS (E. coli) (Sigma, cat #L3129) […] in DMEM, 10% FBS, 1× GlutaMax for 3 hrs at 37° C., 5% CO2.
(§6) Following the LPS priming step, the cells were treated with compounds at 10 uM top final concentration, 1:4 dilution, 8 times: (10 uM, 2.5 uM, 0.625 uM, 0.156 uM, 0.039 uM, 0.0097 uM, 0.0024 uM, 0.0006 uM). DMSO was used as a vehicle control, and MCC950 (InvivoGen, cat #inh-mcc) was used at 1 uM as a positive control, and incubated for 1 hrs at 37° C., 5% CO2.
(§7) Following the 1 hr compound incubation, the NLRP3 inflammasome activation step was conducted by treating cells with Nigericin (InvivoGen, cat #tlrl-nig) at 6.7 uM final concentration for 3 hrs at 37° C., 5% CO2.
(§8) Thereafter, 30 ul samples of cells' supernatants were collected for cytokine analysis which was conducted on Hu IL-1β AlphaLISA (Perkin Elmer, cat #AL220C) and Hu IL-6 AlphaLISA (Perkin Elmer, cat #AL220C). The cells' viability was assessed by performing CellTiter-Glo Luminescent Assay (Promega, cat #G7572) according to the manufacturer's protocol.

[2] = tested on: IL-6; test: IL-6 in supernatants of LPS-primed, nigericin-treated THP1 macrophages, Hu IL-6 AlphaLISA; assay type: cell-based; conditions: Homo sapiens, THP-1, PMA-differentiated, 1 hr compound, Nigericin 6.7 uM 3 hrs, IL-6 in supernatant
Procedure: as §1, §2, §3, §4, §5, §6, §7, §8

T1 sequence (Q96P20 whole entry): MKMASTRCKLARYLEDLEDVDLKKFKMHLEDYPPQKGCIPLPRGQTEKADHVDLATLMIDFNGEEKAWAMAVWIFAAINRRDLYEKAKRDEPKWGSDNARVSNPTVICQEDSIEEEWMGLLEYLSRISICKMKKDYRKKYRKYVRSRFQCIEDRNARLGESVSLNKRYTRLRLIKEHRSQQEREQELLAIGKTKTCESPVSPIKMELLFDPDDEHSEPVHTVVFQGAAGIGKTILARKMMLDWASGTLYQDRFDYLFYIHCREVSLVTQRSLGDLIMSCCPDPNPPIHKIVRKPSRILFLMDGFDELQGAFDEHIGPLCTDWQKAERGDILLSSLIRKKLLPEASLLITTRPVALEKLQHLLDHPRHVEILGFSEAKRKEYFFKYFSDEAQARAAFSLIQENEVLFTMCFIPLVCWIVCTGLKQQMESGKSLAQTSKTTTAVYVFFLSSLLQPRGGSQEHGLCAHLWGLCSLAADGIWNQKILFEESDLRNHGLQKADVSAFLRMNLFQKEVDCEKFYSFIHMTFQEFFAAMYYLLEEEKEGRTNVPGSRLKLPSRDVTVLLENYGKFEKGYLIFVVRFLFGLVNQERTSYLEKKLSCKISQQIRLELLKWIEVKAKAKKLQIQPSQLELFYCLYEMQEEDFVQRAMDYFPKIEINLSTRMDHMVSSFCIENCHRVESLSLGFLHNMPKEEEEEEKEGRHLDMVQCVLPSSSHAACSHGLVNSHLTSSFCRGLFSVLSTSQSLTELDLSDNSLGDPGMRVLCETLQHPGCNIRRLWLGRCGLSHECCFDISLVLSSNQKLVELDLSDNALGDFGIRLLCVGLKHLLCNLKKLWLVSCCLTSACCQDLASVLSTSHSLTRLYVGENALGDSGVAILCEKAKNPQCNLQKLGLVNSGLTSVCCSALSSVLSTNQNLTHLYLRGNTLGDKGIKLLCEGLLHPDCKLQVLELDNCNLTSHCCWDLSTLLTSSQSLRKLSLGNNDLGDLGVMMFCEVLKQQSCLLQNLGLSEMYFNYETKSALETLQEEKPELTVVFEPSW

SMILES	IC50 [1]	IC50 [2]
CC(C)N1CCC[C@@H](Nc2nnc(-c3ccc(C(F)(F)F)cc3)c3ccn(C)c23)C1 [Compound 77]	500 to 1000 nM	≤ 1000 nM
CN1CCC[C@@H](N(C)c2nnc(-c3ccc(Cl)cc3)c3ccn(C)c23)C1 [Compound 82]	1000 to 10000 nM	1000 to 5000 nM
CN1CCC[C@@H](N(C)c2nnc(-c3ccc(C#N)cc3)c3ccn(C)c23)C1 [Compound 84]	≥ 10000 nM	≥ 10000 nM
CN1CCC[C@@H](Oc2nnc(-c3ccc(C(F)(F)F)cc3)c3ccoc23)C1 [Compound 88]	1000 to 10000 nM	≥ 10000 nM
CN1CCC[C@@H](Oc2nnc(-c3ccc(F)cc3O)c3ccn(C)c23)C1 [Compound 89]	100 to 500 nM	≥ 10000 nM
CN1CCC[C@@H](Oc2nnc(-c3ccc(F)cc3O)c3cc[nH]c23)C1 [Compound 90]	100 to 500 nM	≥ 10000 nM
CN1CCC[C@@H](Oc2nnc(-c3ccc(F)cc3O)c3ccoc23)C1 [Compound 91]	100 to 500 nM	≥ 10000 nM
C[N+]1(C)CCC[C@@H](Nc2nnc(-c3ccc(C(F)(F)F)cc3)c3nc[nH]c23)C1 [Compound 92]	≥ 10000 nM	≥ 10000 nM
CN1CCC[C@@H](N(C)c2nnc(-c3ccc(C(F)(F)F)cc3)c3ccoc23)C1 [Compound 93]	1000 to 10000 nM	≥ 10000 nM
CN1CCC[C@@H](N(C)c2nnc(-c3ccc(C(F)(F)F)cc3)c3ccsc23)C1 [Compound 95]	500 to 1000 nM	≥ 10000 nM
Cc1cn(C)c2c(N[C@@H]3CCCN(C)C3)nnc(-c3ccc(C(F)(F)F)cc3)c12 [Compound 97]	100 to 500 nM	≥ 10000 nM
CN1CCC[C@@H](N(C)c2nnc(-c3ccc(F)cc3O)c3ccsc23)C1 [Compound 98]	100 to 500 nM	≥ 10000 nM
CN1CCC[C@@H](N(C)c2nnc(-c3ccc(C#N)cc3O)c3ccn(C)c23)C1 [Compound 102]	500 to 1000 nM	≥ 10000 nM
CN1CCC[C@@H](N(C)c2nnc(-c3ccc(C(F)(F)F)cc3)c3ncn(C)c23)C1 [Compound 105]	≥ 10000 nM	≥ 10000 nM
CN1CCC[C@@H](N(C)c2nnc(-c3ccc(C(F)(F)F)cc3)c3c2cnn3C)C1 [Compound 106]	≥ 10000 nM	≥ 10000 nM
CN1CCC[C@@H](N(C)c2nnc(-c3ccc(F)cc3O)c3ccoc23)C1 [Compound 107]	100 to 500 nM	≥ 10000 nM
CN1CCC[C@@H](Nc2nnc(-c3ncc(C#N)cc3O)c3cnn(C)c23)C1 [Compound 111]	100 to 500 nM	≥ 10000 nM
CN1CCC[C@@H](Nc2nnc(-c3ccc(C#N)cc3C(F)F)c3cnn(C)c23)C1 [Compound 117]	100 to 500 nM	≥ 10000 nM
CN1CCC[C@@H](Nc2nnc(-c3ccc(C#N)cc3Cl)c3ccn(C)c23)C1 [Compound 124]	100 to 500 nM	≥ 10000 nM
Cc1cc(C#N)cc(C)c1-c1nnc(N[C@@H]2CCCN(C)C2)c2c1ccn2C [Compound 126]	≥ 10000 nM	≥ 10000 nM
CN1CCC[C@@H](Nc2nnc(-c3ccc(C(F)(F)F)cn3)c3ccn(C)c23)C1 [Compound 129]	100 to 500 nM	≥ 10000 nM
Cc1cc(C#N)cnc1-c1nnc(N[C@@H]2CCCN(C)C2)c2c1ccn2C [Compound 132]	1000 to 10000 nM	≥ 10000 nM
CN1CCC[C@@H](Nc2nnc(-c3ccc(C(F)(F)F)cn3)c3cnn(C)c23)C1 [Compound 136]	100 to 500 nM	1000 to 5000 nM
Cc1cc(C#N)cnc1-c1nnc(N[C@@H]2CCCN(C)C2)c2c1cnn2C [Compound 139]	≥ 10000 nM	≥ 10000 nM
CN1C[C@H](Nc2nnc(-c3ccc(C#N)cc3O)c3ccn(C)c23)CC(F)(F)C1 [Compound 145]	≥ 10000 nM	≥ 10000 nM

The remaining lines, values ahead:

IC50 [1]	IC50 [2]	SMILES
< 10 nM	≤ 1000 nM	CCN1CCC[C@@H](Nc2nnc(-c3ccc(C(F)(F)F)cc3)c3ccn(C)c23)C1 [Compound 76]
< 10 nM	1000 to 5000 nM	CN1CCC[C@@H](Nc2nnc(-c3ccc(F)cc3O)c3ccn(C)c23)C1 [Compound 78]
100 to 500 nM	≥ 10000 nM	CN1CCC[C@@H](Nc2nnc(-c3ccc(C#N)cc3)c3ccn(C)c23)C1 [Compound 79]
< 10 nM	≥ 10000 nM	CN1CCC[C@@H](Nc2nnc(-c3ccc(Cl)cc3)c3ccn(C)c23)C1 [Compound 80]
100 to 500 nM	1000 to 5000 nM	CN1CCC[C@@H](N(C)c2nnc(-c3ccc(F)cc3O)c3ccn(C)c23)C1 [Compound 81]
10 to 100 nM	1000 to 5000 nM	CN1CCCC(Cc2nnc(-c3ccc(C(F)(F)F)cc3)c3cc[nH]c23)C1 (stereo not drawn) [Compound 83]
100 to 500 nM	5000 to 10000 nM	CN1CCC[C@@H](Oc2nnc(-c3ccc(C(F)(F)F)cc3)c3ccn(C)c23)C1 [Compound 85]
100 to 500 nM	≥ 10000 nM	CN1CCC[C@@H](Oc2nnc(-c3ccc(F)cc3O)c3ccsc23)C1 [Compound 86]
100 to 500 nM	≥ 10000 nM	CN1CCC[C@@H](Oc2nnc(-c3ccc(C(F)(F)F)cc3)c3ccsc23)C1 [Compound 87]
10 to 100 nM	≥ 10000 nM	CN1CCC[C@@H](N(C)c2nnc(-c3ccc(F)cc3O)c3cc[nH]c23)C1 [Compound 96]
< 10 nM	5000 to 10000 nM	CC(C)N1CCC[C@@H](Nc2nnc(-c3ncc(C#N)cc3O)c3ccn(C)c23)C1 [Compound 99]
10 to 100 nM	5000 to 10000 nM	CN1CCC[C@@H](Nc2nnc(-c3ccc(C#N)cc3O)c3ccn(C)c23)C1 [Compound 100]
10 to 100 nM	5000 to 10000 nM	Cc1cc2c(-c3ccc(C(F)(F)F)cc3)nnc(N[C@@H]3CCCN(C)C3)c2n1C [Compound 101]
< 10 nM	5000 to 10000 nM	CCN1CCC[C@@H](Nc2nnc(-c3ccc(C#N)cc3O)c3ccn(C)c23)C1 [Compound 103]
10 to 100 nM	≥ 10000 nM	CN1CCC[C@@H](Nc2nnc(-c3ccc(C#N)cc3O)c3c2cnn3C)C1 [Compound 104]
10 to 100 nM	≥ 10000 nM	Cn1ncc2c(-c3ccc(C(F)(F)F)cc3)nnc(N[C@@H]3CCCN(CC4CC4)C3)c21 [Compound 108]

IC50 [1]	IC50 [2]	SMILES
10 to 100 nM	≥ 10000 nM	Cn1ncc2c(-c3ccc(C(F)(F)F)cc3)nnc(N[C@@H]3CCCN(C4CC4)C3)c21 [Compound 109]
10 to 100 nM	≥ 10000 nM	Cc1cc(C(F)(F)F)ccc1-c1nnc(N[C@@H]2CCCN(C)C2)c2c1cnn2C [Compound 110]
10 to 100 nM	≥ 10000 nM	Cc1cc(C#N)ccc1-c1nnc(N[C@@H]2CCCN(C)C2)c2c1cnn2C [Compound 112]
< 10 nM	≥ 10000 nM	Cc1cc(C#N)cc(O)c1-c1nnc(N[C@@H]2CCCN(C)C2)c2c1cnn2C [Compound 115]
10 to 100 nM	≥ 10000 nM	CN1CCC[C@@H](Nc2nnc(-c3ccc(Cl)cc3C(F)F)c3cnn(C)c23)C1 [Compound 118]
10 to 100 nM	≥ 10000 nM	CN1CCC[C@@H](Nc2nnc(-c3ccc(C(F)(F)F)cc3C(F)F)c3cnn(C)c23)C1 [Compound 119]
10 to 100 nM	≥ 10000 nM	CN1CCC[C@@H](Nc2nnc(-c3ccc(Cl)cc3C(F)F)c3ccn(C)c23)C1 [Compound 121]
< 10 nM	1000 to 5000 nM	Cc1cc(C(F)(F)F)ccc1-c1nnc(N[C@@H]2CCCN(C)C2)c2c1ccn2C [Compound 123]
< 10 nM	5000 to 10000 nM	Cc1cc(C#N)cc(O)c1-c1nnc(N[C@@H]2CCCN(C)C2)c2c1ccn2C [Compound 127]
10 to 100 nM	≥ 10000 nM	CN1CCC[C@@H](Nc2nnc(-c3ncc(C(F)(F)F)cc3Cl)c3ccn(C)c23)C1 [Compound 131]
10 to 100 nM	≥ 10000 nM	Cc1cc(C(F)(F)F)cnc1-c1nnc(N[C@@H]2CCCN(C)C2)c2c1cnn2C [Compound 137]
< 10 nM	≤ 1000 nM	Cc1cc(C(F)(F)F)cc(O)c1-c1nnc(N[C@@H]2CCCN(C)C2)c2c1ccn2C [Compound 143]
< 10 nM	≥ 10000 nM	CN1CCC[C@@H](Nc2nnc(-c3ccc(C#N)cc3O)c3cnsc23)C1 [Compound 144]
10 to 100 nM	≥ 10000 nM	Cn1ccc2c(-c3ccc(C#N)cc3O)nnc(N[C@@H]3CCCN(C4CC4)C3)c21 [Compound 146]
< 10 nM	≥ 10000 nM	Cn1ccc2c(-c3ccc(C#N)cc3O)nnc(N[C@@H]3CCCN(CCO)C3)c21 [Compound 147]
10 to 100 nM	≥ 10000 nM	Cn1ccc2c(-c3ccc(C#N)cc3O)nnc(N[C@@H]3CCCN(CCF)C3)c21 [Compound 148]

— patent US20260015357A1, “MODULATORS OF NLRP3 INFLAMMASOME AND RELATED PRODUCTS AND METHODS” (Neumora Therapeutics, Inc., priority 2022, published 2026)
